From patent US12459974B2, “Bicyclic peptide ligands specific for Nectin-4” (priority 2018, dated 2025)
*1 amine or outer side, *2 acyl side, *3 side chain or, on linkers, in order; H or OH if unused. Where a SMILES comes first, the peptide text is derived from it. Bridges are numbered along the chain shown (N, C = ends). Roman numbers before positions name the chains, in order. [ ]: non-standard residue; d: D form. The star is where a group is joined. ξ: configuration not given here. TATA = O=C(CC[*:1])N1CN(C(=O)CC[*:2])CN(C(=O)CC[*:3])C1; Dolaproine = CO[C@@H]([C@@H]1CCCN1)[C@@H](C)C(=O)O; X1 = CC[C@H](C)C(C(CC(=O)[*:2])OC)N(C)[*:1]; 1Nal = N[C@@H](Cc1cccc2ccccc12)C(=O)O; X3 = O=C(CCCC(=O)[*:2])NCCC(=O)[*:1]; PABC = O=C(OCc1ccc(N[*:1])cc1)[*:2]; Hyp = O=C(O)[C@@H]1C[C@@H](O)CN1; hArg = N=C(N)NCCCC[C@H](N)C(=O)O; Cit = NC(=O)NCCC[C@H](N)C(=O)O; X2 = CC(N*)[C@@H](O)c1ccccc1; ξNMeV = CNC(C(=O)O)C(C)C; ξV = CC(C)C(N)C(=O)O; Sar = CNCC(=O)O

How the values were obtained:
[1] = tested on: Panc2.13 xenograft; assay: Example 3: in vivo efficacy in Panc2.13 xenograft (pancreatic cancer model) in Balb/c nude mice; parameters: species or system Mus Musculus
[2] = tested on: NCI-H292 xenograft; assay: Example 9.5: in vivo efficacy in NCI-H292 xenograft in Balb/c nude mice; parameters: species or system Mus Musculus
[3] = tested on: LU-01-0412 PDX; assay: Example 12: in vivo efficacy in Lu-01-0412 PDX model of lung cancer; parameters: species or system Mus Musculus
Protocol: (§1) Animals were checked daily for any effects of tumor growth and treatments on normal behavior such as mobility, food and water consumption (by looking only), body weight gain/loss, eye/hair matting and any other abnormal effect as stated in the protocol. Death and observed clinical signs were recorded on the basis of the numbers of animals within each subset.

[4] = tested on: LU-01-0007 PDX; assay: Example 12: in vivo efficacy in LU-01-0007 PDX model of lung cancer; parameters: species or system Mus Musculus
Protocol: as §1

[5] = tested on: NCI-H526 xenograft; assay: Example 9.6: in vivo efficacy in NCI-H526 xenograft in Balb/c nude mice; conditions: for Tumor volume: iv
Protocol: (§2) The major endpoint was to see if the tumor growth could be delayed or mice could be cured. Tumor volume was measured three times weekly in two dimensions using a caliper, and the volume was expressed in mm^3 using the formula: V=0.5 a×b^2 where a and b are the long and short diameters of the tumor, respectively. The tumor size was then used for calculations of T/C value. The T/C value (in percent) is an indication of antitumor effectiveness; T and C are the mean volumes of the treated and control groups, respectively, on a given day. TGI was calculated for each group using the formula: TGI (%)=[1−(Ti−T0)/(Vi−V0)]×100; Ti is the average tumor volume of a treatment group on a given day, T0 is the average tumor volume of the treatment group on the day of treatment start, Vi is the average tumor volume of the vehicle control group on the same day with Ti, and V0 is the average tumor volume of the vehicle group on the day of treatment start.
(§3) A one-way ANOVA was performed to compare tumor volume among groups, and when a significant F-statistics (a ratio of treatment variance to the error variance) was obtained, comparisons between groups were carried out with Games-Howell test. All data were analyzed using GraphPad Prism 5.0. P<0.05 was considered to be statistically significant.
• Species: Mus Musculus • Strain: Balb/c nude • Age: 6-8 weeks • Sex: female • Body weight: 18-22 g • Number of animals: 21 mice plus spare 3.1.2.
The NCI-H526 cells were maintained in medium supplemented with 10% heat inactivated fetal bovine serum at 37° C. in an atmosphere of 5% CO2 in air. The tumor cells were routinely subcultured twice weekly. The cells growing in an exponential growth phase were harvested and counted for tumor inoculation.
Each mouse was inoculated subcutaneously at the right flank with NCI-H526 tumor cells (5.0×10^6 in 0.2 ml of PBS for tumor development. 21 animals were randomized when the average tumor volume reached 181 mm^3. The test article administration and the animal numbers in each group were shown in the experimental design table.
Tumor growth inhibition rate for test articles in the NCI-H526 xenograft model was calculated based on tumor volume measurements at day 14 after the start of the treatment.

[6] = tested on: Panc2.13 xenograft; assay: Example 9.7: in vivo efficacy in Panc2.13 xenograft in Balb/c nude mice; conditions: for Tumor volume: iv
Protocol: as §2, §3
• Species: Mus Musculus • Strain: Balb/c nude • Age: 6-8 weeks • Sex: female • Body weight: 18-22 g • Number of animals: 41 mice plus spare 3.1.2.
The Panc2.13 tumor cells will be maintained in RMPI1640 medium supplemented with 15% heat inactivated fetal bovine serum and 10 units/ml human recombinant insulin at 37° C. in an atmosphere of 5% CO2 in air. The tumor cells will be routinely subcultured twice weekly. The cells growing in an exponential growth phase will be harvested and counted for tumor inoculation.
Each mouse was inoculated subcutaneously at the right flank with Panc2.13 tumor cells (5×10^6 with Matrigel (1:1) in 0.2 ml of PBS for tumor development. 41 animals were randomized when the average tumor volume reached 149 mm^3. The test article administration and the animal numbers in each group were shown in the experimental design table.
Tumor growth inhibition rate for Test articles in the Panc2.13 xenograft model was calculated based on tumor volume measurements at day 14 after the start of treatment.

[7] = 3 mpk, biw, day 0 after the start of treatment
[8] = 3 mpk, qw, day 0 after the start of treatment
[9] = 5 mpk, qw, day 0 after the start of treatment

## CC[C@H](C)C(C(CC(=O)N1CCC[C@H]1[C@H](OC)[C@@H](C)C(=O)NC(C)[C@@H](O)c1ccccc1)OC)N(C)C(=O)[C@@H](NC(=O)C(C(C)C)N(C)C(=O)OCc1ccc(NC(=O)[C@H](CCCNC(N)=O)NC(=O)C(NC(=O)CCCC(=O)NCCC(=O)N(C)CC(=O)N(C)CC(=O)N(C)CC(=O)N(C)CC(=O)N(C)CC(=O)N(C)CC(=O)N(C)CC(=O)N(C)CC(=O)N(C)CC(=O)N(C)CC(=O)N[C@H]2CSCCC(=O)N3CN4CN(C3)C(=O)CCSC[C@H](NC(=O)[C@@H](CC(=O)O)NC(=O)[C@H](Cc3cccc5ccccc35)NC(=O)[C@@H]3CCCN3C2=O)C(=O)N[C@@H](CCSC)C(=O)N[C@@H](CCCCNC(=N)N)C(=O)N[C@@H](CC(=O)O)C(=O)N[C@@H](Cc2c[nH]c3ccccc23)C(=O)N[C@@H](CO)C(=O)N[C@@H]([C@@H](C)O)C(=O)N2CCC[C@H]2C(=O)N2C[C@H](O)C[C@H]2C(=O)N[C@@H](Cc2c[nH]c3ccccc23)C(=O)N[C@H](C(N)=O)CSCCC4=O)C(C)C)cc1)C(C)C (stereo partly drawn) [BCY8245, MMAE-PABC-Cit-Val-Glutaryl-BCY8234] (I: [Sar][Sar][Sar][Sar][Sar][Sar][Sar][Sar][Sar][Sar]CP[1Nal][dD]CM[hArg]DWSTP[Hyp]WC-NH2 / II: [ξV][Cit][PABC][ξNMeV]V[X1][Dolaproine]-X2; linker I:11-I:15-I:25 via TATA; linker I:N-II:N via X3)
[1]; 3 mg/kg biw, day 14
  TGI: 79.1%
  Tumor volume (TV): 231 mm^3
[1]; 3 mg/kg qw, day 14
  TGI: 69.2%
  Tumor volume (TV): 271 mm^3
[1]; 5 mg/kg qw, day 14
  TGI: 77.5%
  Tumor volume (TV): 238 mm^3
[1]; 3 mpk, biw, iv, day 0 after start of treatment
  Tumor volume: 148 ± 46 mm^3
[1]; 3 mpk, biw, iv, day 2
  Tumor volume: 170 ± 38 mm^3
[1]; 3 mpk, biw, iv, day 4
  Tumor volume: 204 ± 57 mm^3
[1]; 3 mpk, biw, iv, day 7
  Tumor volume: 216 ± 56 mm^3
[1]; 3 mpk, biw, iv, day 9
  Tumor volume: 236 ± 59 mm^3
[1]; 3 mpk, biw, iv, day 11
  Tumor volume: 241 ± 60 mm^3
[1]; 3 mpk, biw, iv, day 14
  Tumor volume: 231 ± 57 mm^3
[1]; 3 mpk, biw, day 14
  T/C: 42.3%
  TGI: 79.1%
[1]; 3 mpk, biw, day 14, Mean ± SEM (Table 19)
  Tumor volume: 231 ± 57 mm^3
[1]; 3 mpk, qw, iv, day 0 after start of treatment
  Tumor volume: 149 ± 34 mm^3
[1]; 3 mpk, qw, iv, day 2
  Tumor volume: 160 ± 33 mm^3
[1]; 3 mpk, qw, iv, day 4
  Tumor volume: 191 ± 39 mm^3
[1]; 3 mpk, qw, iv, day 7
  Tumor volume: 215 ± 53 mm^3
[1]; 3 mpk, qw, iv, day 9
  Tumor volume: 242 ± 62 mm^3
[1]; 3 mpk, qw, iv, day 11
  Tumor volume: 259 ± 59 mm^3
[1]; 3 mpk, qw, iv, day 14
  Tumor volume: 271 ± 54 mm^3
[1]; 3 mpk, qw, day 14
  T/C: 49.6%
  TGI: 69.2%
[1]; 3 mpk, qw, day 14, Mean ± SEM (Table 19)
  Tumor volume: 271 ± 54 mm^3
[1]; 5 mpk, qw, iv, day 0 after start of treatment
  Tumor volume: 149 ± 18 mm^3
[1]; 5 mpk, qw, iv, day 2
  Tumor volume: 180 ± 11 mm^3
[1]; 5 mpk, qw, iv, day 4
  Tumor volume: 231 ± 33 mm^3
[1]; 5 mpk, qw, iv, day 7
  Tumor volume: 242 ± 34 mm^3
[1]; 5 mpk, qw, iv, day 9
  Tumor volume: 248 ± 40 mm^3
[1]; 5 mpk, qw, iv, day 11
  Tumor volume: 231 ± 37 mm^3
[1]; 5 mpk, qw, iv, day 14
  Tumor volume: 238 ± 40 mm^3
[1]; 5 mpk, qw, day 14
  T/C: 43.6%
  TGI: 77.5%
[1]; 5 mpk, qw, day 14, Mean ± SEM (Table 19)
  Tumor volume: 238 ± 40 mm^3
[1]; mouse, in vivo
  anti-tumour activity (in words): good anti-tumour activity
[2]; 3 mg/kg biw, day 14
  TGI: 112.2%
  Tumor volume (TV): 65 mm^3
[2]; 3 mg/kg qw, day 14
  TGI: 101.4%
  Tumor volume (TV): 149 mm^3
[2]; 5 mg/kg qw, day 14
  TGI: 109.8%
  Tumor volume (TV): 83 mm^3
[2]; [7]
  Tumor volume: 162 mm^3
[2]; 3 mpk, biw, day 2
  Tumor volume: 243 mm^3
[2]; 3 mpk, biw, day 4
  Tumor volume: 211 mm^3
[2]; 3 mpk, biw, day 7
  Tumor volume: 101 mm^3
[2]; 3 mpk, biw, day 9
  Tumor volume: 100 mm^3
[2]; 3 mpk, biw, day 11
  Tumor volume: 87 mm^3
[2]; 3 mpk, biw, day 14
  T/C: 6.9%
  TGI: 112.2%
  Tumor Volume (Mean ± SEM): 65 ± 3 mm^3
  Tumor volume: 65 mm^3
[2]; [8]
  Tumor volume: 160 mm^3
[2]; 3 mpk, qw, day 2
  Tumor volume: 220 mm^3
[2]; 3 mpk, qw, day 4
  Tumor volume: 266 mm^3
[2]; 3 mpk, qw, day 7
  Tumor volume: 218 mm^3
[2]; 3 mpk, qw, day 9
  Tumor volume: 167 mm^3
[2]; 3 mpk, qw, day 11
  Tumor volume: 161 mm^3
[2]; 3 mpk, qw, day 14
  T/C: 15.8%
  TGI: 101.4%
  Tumor Volume (Mean ± SEM): 149 ± 43 mm^3
  Tumor volume: 149 mm^3
[2]; [9]
  Tumor volume: 160 mm^3
[2]; 5 mpk, qw, day 2
  Tumor volume: 176 mm^3
[2]; 5 mpk, qw, day 4
  Tumor volume: 191 mm^3
[2]; 5 mpk, qw, day 7
  Tumor volume: 105 mm^3
[2]; 5 mpk, qw, day 9
  Tumor volume: 82 mm^3
[2]; 5 mpk, qw, day 11
  Tumor volume: 91 mm^3
[2]; 5 mpk, qw, day 14
  T/C: 8.8%
  TGI: 109.8%
  Tumor Volume (Mean ± SEM): 83 ± 8 mm^3
  Tumor volume: 83 mm^3
[2]; mouse, in vivo
  tumor response (in words): causes regression of the tumor
[3]; 1 mg/kg qw
  efficacy (in words): reduction in tumour growth rate
[3]; 3 mg/kg qw
  efficacy (in words): marked tumor regression
[3]; 3 mg/kg qw, after cessation of dosing (Day 21) out to 105 days post study start
  animals with no tumour regrowth: 5/6
[3]; single dose
  response of large tumors (vehicle treated group) to a single dose (in words): regressed
[4]; 1 mg/kg qw
  efficacy (in words): stable disease
[4]; 3 mg/kg, after dosing ceased, out to 126 days post study start
  tumor regrowth (in words): no tumor regrowth
[4]; 3 mg/kg, dosing maintained out to day 56
  efficacy (in words): full regression
[5]; 3 mg/kg biw, day 14
  TGI: 21.6%
  Tumor volume (TV): 1109 mm^3
[5]; 3 mg/kg qw, day 14
  TGI: 13.4%
  Tumor volume (TV): 1205 mm^3
[5]; 5 mg/kg biw
  animal bodyweight loss: over 10%
[5]; 5 mg/kg qw, day 14
  TGI: 75.0%
  Tumor volume (TV): 476 mm^3
[5]; [7]
  Tumor volume: 182 mm^3
[5]; 3 mpk, biw, day 2
  Tumor volume: 232 mm^3
[5]; 3 mpk, biw, day 4
  Tumor volume: 308 mm^3
[5]; 3 mpk, biw, day 7
  Tumor volume: 440 mm^3
[5]; 3 mpk, biw, day 9
  Tumor volume: 530 mm^3
[5]; 3 mpk, biw, day 12
  Tumor volume: 810 mm^3
[5]; 3 mpk, biw, day 14
  Tumor volume: 1109 mm^3
  T/C: 81.3%
  TGI: 21.6%
  Tumor Volume (Mean ± SEM): 1109 ± 250 mm^3
[5]; [8]
  Tumor volume: 180 mm^3
[5]; 3 mpk, qw, day 2
  Tumor volume: 256 mm^3
[5]; 3 mpk, qw, day 4
  Tumor volume: 403 mm^3
[5]; 3 mpk, qw, day 7
  Tumor volume: 545 mm^3
[5]; 3 mpk, qw, day 9
  Tumor volume: 657 mm^3
[5]; 3 mpk, qw, day 12
  Tumor volume: 1019 mm^3
[5]; 3 mpk, qw, day 14
  Tumor volume: 1205 mm^3
  T/C: 88.3%
  TGI: 13.4%
  Tumor Volume (Mean ± SEM): 1205 ± 79 mm^3
[5]; [9]
  Tumor volume: 180 mm^3
[5]; 5 mpk, qw, day 2
  Tumor volume: 209 mm^3
[5]; 5 mpk, qw, day 4
  Tumor volume: 236 mm^3
[5]; 5 mpk, qw, day 7
  Tumor volume: 383 mm^3
[5]; 5 mpk, qw, day 9
  Tumor volume: 375 mm^3
[5]; 5 mpk, qw, day 12
  Tumor volume: 365 mm^3
[5]; 5 mpk, qw, day 14
  Tumor volume: 476 mm^3
  T/C: 34.9%
  TGI: 75.0%
  Tumor Volume (Mean ± SEM): 476 ± 103 mm^3
[5]; mouse, in vivo
  tumor response (in words): tumor growth is restrained by BCY8245 but the tumor does not undergo regression
[6]; 3 mg/kg biw, day 14
  TGI: 79.1%
  Tumor volume (TV): 231 mm^3
[6]; 3 mg/kg qw, day 14
  TGI: 69.2%
  Tumor volume (TV): 271 mm^3
[6]; 5 mg/kg qw, day 14
  TGI: 77.5%
  Tumor volume (TV): 238 mm^3
[6]; [7]
  Tumor volume: 148 mm^3
[6]; 3 mpk, biw, day 2
  Tumor volume: 170 mm^3
[6]; 3 mpk, biw, day 4
  Tumor volume: 204 mm^3
[6]; 3 mpk, biw, day 7
  Tumor volume: 216 mm^3
[6]; 3 mpk, biw, day 9
  Tumor volume: 236 mm^3
[6]; 3 mpk, biw, day 11
  Tumor volume: 241 mm^3
[6]; 3 mpk, biw, day 14
  Tumor volume: 231 mm^3
  T/C: 42.3%
  TGI: 79.1%
  Tumor Volume (Mean ± SEM): 231 ± 57 mm^3
[6]; [8]
  Tumor volume: 149 mm^3
[6]; 3 mpk, qw, day 2
  Tumor volume: 160 mm^3
[6]; 3 mpk, qw, day 4
  Tumor volume: 191 mm^3
[6]; 3 mpk, qw, day 7
  Tumor volume: 215 mm^3
[6]; 3 mpk, qw, day 9
  Tumor volume: 242 mm^3
[6]; 3 mpk, qw, day 11
  Tumor volume: 259 mm^3
[6]; 3 mpk, qw, day 14
  Tumor volume: 271 mm^3
  T/C: 49.6%
  TGI: 69.2%
  Tumor Volume (Mean ± SEM): 271 ± 54 mm^3
[6]; [9]
  Tumor volume: 149 mm^3
[6]; 5 mpk, qw, day 2
  Tumor volume: 180 mm^3
[6]; 5 mpk, qw, day 4
  Tumor volume: 231 mm^3
[6]; 5 mpk, qw, day 7
  Tumor volume: 242 mm^3
[6]; 5 mpk, qw, day 9
  Tumor volume: 248 mm^3
[6]; 5 mpk, qw, day 11
  Tumor volume: 231 mm^3
[6]; 5 mpk, qw, day 14
  Tumor volume: 238 mm^3
  T/C: 43.6%
  TGI: 77.5%
  Tumor Volume (Mean ± SEM): 238 ± 40 mm^3
[6]; mouse, in vivo
  tumor response (in words): tumor growth is restrained by BCY8245 but the tumor does not undergo regression
